Values after ≈ are worked out from the molar mass of the structure shown. “Also recorded” adds a separate entry of the source. Like-named read-outs stand apart in the source and are kept apart here.
What was measured:
A549 = test: Toxicity in A549 cells (ADV-0172); assay type: cell-based
Adenovirus5 Adenoid75 = test: Adenovirus 5 CPE inhibition, A549 (ADV-0172); assay type: cell-based; details: A549
HG23 [1] = test: RNA Hybridization toxicity in HG23 cells (16-21); assay type: cell-based
From the text: (§1) Secondary testing was done with human norovirus.

mouse norovirus (MNV-1) = test: Mouse norovirus CPE inhibition (NR), RAW264.7 (17-09); assay type: cell-based
[2] = tested on: human norovirus (NV, GT1); test: Human norovirus replicon, RNA Hybridization, HG23, primary (16-21); assay type: cell-based; details: RNA Hybridization (Replicon), NV GT1, HG23
From the text: as §1

HG23 [3] = test: NR toxicity in HG23 cells (17-14); assay type: cell-based; details: NR (Tox)
From the text: as §1

[4] = tested on: human norovirus (NV, GT1); test: Human norovirus replicon, qPCR, HG23, secondary (17-14); assay type: cell-based
From the text: as §1

[5] = Neutral Red toxicity in Huh7 cells, secondary (Zika-094); details: human
Zika Virus [6] = test: Zika virus yield reduction (VYR), Vero 76, secondary (Zika-094); assay type: cell-based; details: Visual (Virus yield reduction), MR766
Zika Virus [7] = test: Zika virus CPE inhibition (Neutral Red), Huh7, secondary (Zika-094); assay type: cell-based; details: Huh-7, Neutral Red (Cytopathic effect), MR766, Huh7, secondary, read-out: EC50
[8] = Neutral Red toxicity in Vero 76 cells, secondary (Zika-094); details: monkey, Vero 76 cells
Zika Virus [9] = test: Zika virus cytopathic effect (CPE) inhibition, Vero 76, primary screen (Zika-089); assay type: cell-based; details: Zika virus, MR766, Vero 76, primary
Zika Virus [10] = test: Zika virus yield reduction (VYR), Huh7, secondary (Zika-094); assay type: cell-based; details: Huh-7, Visual (Virus yield reduction), MR766
[11] = Toxicity in Vero 76 cells, primary screen (Zika-089); details: monkey, Vero 76 cells
Zika Virus [12] = test: Zika virus CPE inhibition (Neutral Red), Vero 76, secondary (Zika-094); assay type: cell-based; details: Neutral Red (Cytopathic effect), MR766
[13] = Cell Titer-Glo toxicity in C-33A cells (HPV16-15); details: human, C-33A cells
[14] = tested on: influenza A/California/04/2009 (H1N1pdm); test: Mycophenolate mofetil in influenza-infected mice on standard or low nucleotide diet (Example 19); assay type: in vivo, C57BL/6 mice; details: for Mean Day of Death (MDD) vs placebo: standard diet
Vero 76 [15] = tested on: Vero 76
Zika Virus [16] = test: Zika prevention, virus yield reduction (VYR), Vero 76, 4 h pre-incubation (Zika-138); assay type: cell-based; details: Visual (Virus yield reduction), pre-incubated 4 hours prior to infection
Zika Virus [17] = test: Zika prevention, CPE inhibition (Neutral Red), Vero 76, 4 h pre-incubation (Zika-138); assay type: cell-based; details: Neutral Red (Cytopathic effect), pre-incubated 4 hours prior to infection
Zika Virus [18] = test: Zika prevention, virus yield reduction (VYR), Huh7, 24 h pre-incubation (Zika-138); assay type: cell-based; details: Visual (Virus yield reduction); Huh7; pre-incubated 24 hours prior to infection
Experimental: (§2) An experiment was carried out as specified in Example 8. In a Zika Prevention Trial, MPA was pre-incubated with human cells 4 hours or 24 hours before Zika virus infection.

Zika Virus [19] = test: Zika prevention, CPE inhibition (Neutral Red), Huh7, 24 h pre-incubation (Zika-138); assay type: cell-based; details: Neutral Red (Cytopathic effect), pre-incubated 24 hours prior to infection
Zika Virus [20] = test: Zika prevention, virus yield reduction (VYR), Huh7, 4 h pre-incubation (Zika-138); assay type: cell-based; details: Visual (Virus yield reduction); Huh7; pre-incubated 4 hours prior to infection
Experimental: as §2

Zika Virus [21] = test: Zika prevention, CPE inhibition (Neutral Red), Vero 76, 24 h pre-incubation (Zika-138); assay type: cell-based; details: Neutral Red (Cytopathic effect), pre-incubated 24 hours prior to infection
Vero 76 [22] = tested on: Vero 76; remark: listed apart in the source
Zika Virus [23] = test: Zika prevention, virus yield reduction (VYR), Vero 76, 24 h pre-incubation (Zika-138); assay type: cell-based; details: Visual (Virus yield reduction), pre-incubated 24 hours prior to infection
Zika Virus [24] = test: Zika prevention, CPE inhibition (Neutral Red), Huh7, 4 h pre-incubation (Zika-138); assay type: cell-based; details: Neutral Red (Cytopathic effect), pre-incubated 4 hours prior to infection
[25] = tested on: influenza A/California/04/2009 (H1N1pdm); test: Oseltamivir with control or low guanosine diet in influenza-infected mice (Example 15); assay type: in vivo, C57BL/6 mice; details: oseltamivir IP, BID for five days from four hours pre-infection
in vitro [26] = details: African green monkey
[27] = tested on: Influenza A virus H1N1 California/07/2009; test: microbe, parasite or virus in culture; assay type: cell-based
in vitro [28] = details: African green monkey; remark: listed apart in the source
[29] = tested on: Rift Valley fever virus MP-12; test: microbe, parasite or virus in culture; assay type: cell-based
[30] = tested on: Respiratory syncytial virus A2; test: microbe, parasite or virus in culture; assay type: cell-based
in vitro [31] = details: dog
Lassa fever virus Josiah = test: organism not typed; assay type: cell-based; details: Vero

Which CC50 (A549; Neutral Red (Toxicity)) does the source give for `Nc1ccn([C@H]2CC[C@@H](CO)O2)c(=O)n1` [2,3-Dideoxycytidine] here?
Its CC50 is >100 µg/mL.

What about the CC50 (A549; Visual (Toxicity)) of the same molecule?
The CC50 was >100 µg/mL.

What about the EC50 (Adenovirus5 Adenoid75; Neutral Red (Cytopathic effect)) of the same molecule?
Its EC50 is 3.2 µg/mL (≈ 15.2 µM).

And the EC50 (Adenovirus5 Adenoid75; Visual (Cytopathic effect))?
Its EC50 is 3.2 µg/mL (≈ 15.2 µM).

Which CC50 (RAW264.7) does the source give for `C[C@@]1(O)[C@H](O)[C@@H](CO)O[C@H]1n1ccc(N)nc1=O` [2′C-methyl cytidine] here?
Its CC50 is 51 µM.

What about the CC50 (HG23 [1]) of the same molecule?
Its CC50 is > 300 µM.

And the EC50 (mouse norovirus (MNV-1))?
Its EC50 is 1 µM.

And the EC90 (mouse norovirus (MNV-1))?
Its EC90 is 3.2 µM.

What about the EC50 ([2]; read-out: EC50) of the same molecule?
The EC50 was 6.6 µM.

What about the EC90 ([2]; read-out: EC90) of the same molecule?
The EC90 was 17 µM.

And the CC50 (HG23 [3])?
The CC50 was > 300 µM.

And the EC50 [4]?
The EC50 was 6 µM.

And the EC90 [4]?
Its EC90 is 18 µM.

What does the source list for `O=c1cnn([C@@H]2O[C@H](CO)[C@@H](O)[C@H]2O)c(=O)[nH]1` [6-Azauridine]?
CC50 [5]: > 100 µg/mL; EC90 (Zika Virus [6]): 1.3 µg/mL (≈ 5.3 µM); EC50 (Zika Virus [7]): 1.2 µg/mL (≈ 4.89 µM); CC50 [8]: 9.9 µg/mL (≈ 40.4 µM); EC50 (Zika Virus [9]; Vero 76, Neutral Red (Cytopathic effect)): 0.35 µg/mL (≈ 1.43 µM); EC50 (Zika Virus [9]; Vero 76, Visual (Cytopathic effect)): 0.32 µg/mL (≈ 1.31 µM); EC90 (Zika Virus [10]): 27.4 µg/mL (≈ 112 µM); CC50 ([11]; CC50, Neutral Red (Toxicity)): 83.3 µg/mL (≈ 340 µM); CC50 ([11]; CC50, Visual (Toxicity)): > 100 µg/mL; EC50 (Zika Virus [12]): 0.37 µg/mL (≈ 1.51 µM)

Which CC50 [13] does the source give for `Nc1nc2c(ncn2CCOCP(=O)(O)O)c(=O)[nH]1` [9-[2-(phosphonomethoxy)ethyl]guanine] here?
Its CC50 is 141 µM.

For `COc1c(C)c2c(c(O)c1C/C=C(\C)CCC(=O)OCCN1CCOCC1)C(=O)OC2` [MMF, 2-morpholinoethyl ester of mycophenolic acid], which “protection (survival) vs placebo” value ([14]; low nucleotide diet, MMF 4 mg/kg/day bid for 6 days beginning 4 h pre-infection) is on record?
Its value is “significant (P<0.05) protection; also recorded: improved survival outcome”.

And the “Mean Day of Death (MDD) vs placebo” value ([14]; MMF 4 mg/kg/day PO bid for 6 days)?
The value was “significantly (P<0.05) increased”.

What about the “Mean Day of Death (MDD) vs placebo” value ([14]; MMF 40 mg/kg/day PO bid for 6 days) of the same molecule?
The value was “significantly (P<0.05) increased”.

With `C#C[C@@]1(O)[C@H](O)[C@@H](CO)O[C@H]1n1ccc2c(N)ncnc21` [NITD008] as the molecule, how does the CC50 (Vero 76 [15]) read?
Its CC50 is >100 µg/mL.

What about the EC90 (Zika Virus [16]) of the same molecule?
Its EC90 is 7.81 µg/mL (≈ 26.9 µM).

And the EC50 (Zika Virus [17])?
Its EC50 is 8.3 µg/mL (≈ 28.6 µM).

What about the EC90 (Zika Virus [18]) of the same molecule?
Its EC90 is 1.0 µg/mL (≈ 3.44 µM).

What about the EC50 (Zika Virus [19]) of the same molecule?
Its EC50 is 0.77 µg/mL (≈ 2.65 µM).

What about the EC90 (Zika Virus [20]) of the same molecule?
Its EC90 is 0.61 µg/mL (≈ 2.1 µM).

What about the EC50 (Zika Virus [21]) of the same molecule?
The EC50 was 5.1 µg/mL (≈ 17.6 µM).

What about the CC50 (Vero 76 [22]) of the same molecule?
The CC50 was >100 µg/mL.

And the EC90 (Zika Virus [23])?
The EC90 was 31.62 µg/mL (≈ 109 µM).

And the EC50 (Zika Virus [24])?
The EC50 was 1.1 µg/mL (≈ 3.79 µM).

With `CCOC(=O)C1=C[C@@H](OC(CC)CC)[C@H](NC(C)=O)[C@@H](N)C1` [Oseltamivir, oseltamivir] as the molecule, how does the “survival at 21 days post-infection” value ([25]; Group A, control diet (Harlan mouse lab diet)) read?
Its value is 40%.

And the “survival at 21 days post-infection” value ([25]; Group B, low guanosine diet (Purina Mills #5755))?
Its value is 100%.

Which CC50 (in vitro [26]) does the source give for `NC(=O)c1ncn([C@@H]2O[C@H](CO)[C@@H](O)[C@H]2O)n1` [Ribavirin] here?
Its CC50 is > 100 µM.

And the EC50 [27]?
The EC50 was 4.1 µM.

And the EC50 ([27]; Influenza A virus, H1N1, MDCK)?
The EC50 was 3.7 µM.

And the CC50 (in vitro [28])?
The CC50 was > 1000 µg/mL.

What about the EC50 [29] of the same molecule?
Its EC50 is 12 µg/mL (≈ 49.1 µM).

And the EC50 ([29]; Rift Valley fever virus, Vero 76)?
Its EC50 is 11 µg/mL (≈ 45 µM).

What about the EC50 [30] of the same molecule?
Its EC50 is 12 µg/mL (≈ 49.1 µM).

What about the EC50 ([30]; human respiratory syncytial virus, MA104) of the same molecule?
The EC50 was 7.6 µg/mL (≈ 31.1 µM).

What about the CC50 (in vitro [31]) of the same molecule?
Its CC50 is > 320 µM.

And the EC50 (Lassa fever virus Josiah)?
Its EC50 is 32 µM.

— US20250144066A1, “Prevention and Treatment of Parasitic Infections” (priority 2017, published 2025)
